Data as given in patent US20250241890A1, “1,4-DIUREAS AND 1,4-DITHIOUREAS AND USES THEREOF” (Purdue Research Foundation, priority 2024, published 2025).

Tests used:
α-synuclein (α-syn) = target: T1, α-synuclein (α-syn) (Homo sapiens, UniProt P37840); experiment: PICUP assay of α-syn oligomer formation; format: biochemical; settings: α-syn 60 μM, compound 50 μM (~molar ratio 1:1)
T1 construct: purchased rPeptide (Watkinsville, GA)
Method: Chemical and peptide source. Dimethylsulfoxide (DMSO) and thioflavin-T (ThT) were purchased from Alfa Aesar (Ward Hill, MA). Recombinant α-synuclein (α-syn) was procured from rPeptide (WatKinsville, GA). The recombinant p-tau isoform 1N4R was prepared as published previously (Fortin et al. 2021, Sui et al. 2015, Liu et al. 2020). Concerning the preparation of tau 0N4R, a bacterial expression plasmid consisting of the vector pET30a carrying a cDNA encoding the human Tau 0N4R isoform was a kind gift of Dr. Benjamin Wolozin (Boston University). E. coli stock (Rosetta BL21 E. coli (CamR) containing pET30a [0N4R tau wt] (KanR)) was grown in LB medium supplemented with kanamycin (50 μg/mL) and chloramphenicol (50 μg/mL). Protein over-expression was induced by the addition of 1 mM IPTG for ˜18 hours at 37° C., and cells were pelleted by centrifugation at 6,000 g for 15 minutes at 4° C. The cells were resuspended in lysis buffer (10 mM Hepes, pH 7.4, 50 mM NaCl, 1 mM MgCl2, 1 mM PMSF, 1× PIC, and 0.5 mM DTT) and lysed by sonication at 30 seconds “On” and 1 minute “Off” at ˜30-45% power for ˜3-5 minutes. Lysate was centrifuged at 10,000 rpm for 10 minutes at 4° C., and supernatant was transferred with 7.8 ml (total) of 3M NaCl. The lysate was incubated for 10 minutes in 80° C. water bath, then cooled for 10 minutes in an ice bath. The lysate was centrifuged at 10,000 rpm at 4° C. for 10 minutes, and the supernatant was transferred to a new tube. The supernatant was dialyzed overnight against cation exchange buffer (50 mM MES, […], 1 mM DTT, pH 6.0). The dialysate was loaded onto a HiPrep SP HP column, and proteins were eluted with a linear gradient ranging from 50 mM to 1 M NaCl. General Characterizations. ^1H and ^13C {1H} NMR spectra were recorded using a 500 MHz Bruker instrument working at a frequency of 500 MHz for ^1H and at 126 MHz for ^13C. Chemical shifts are reported in ppm using residual solvent resonances as internal reference (δ 2.50 and δ 39.51 for ^1H and ^13C in DMSO-d6, respectively). ^1H NMR data are reported as follows. b=broad, s=singlet, d=doublet, t=triplet, q=quartet, and m=multiplet. Coupling constants are given in hertz. The purity of all compounds and synthetic intermediates was judged to be 95% or better based on ^1H NMR. IR measurements were performed in a Nicolet FTIR as thin films in the Purdue Drug Discovery facility. High-resolution mass spectrometry analyses were conducted at the MSU Mass Spectrometry facility. Thioflavin fluorescence assays. Thioflavin fluorescence assays were used to monitor fibril formation of commercial recombinant α-syn at a final concentration of 2 μM and treated with control DMSO and different compounds. The recombinant α-syn obtained from rPeptide has been validated with proper quality control to confirm the monomeric state of the protein. Kinetics of fibril formation have been performed using ThT as published previously.^6, 12, 13, 24 The fluorescence emission experiments were performed with the excitation and emission wavelengths set at 440 and 485 nm, respectively, with a Synergy HT multi-mode microplate reader (BioTek, Winooski, VT). Samples were measured in three replicates. Experiments were repeated three times using different α-syn stock solutions. For each time point, arbitrary units of fluorescence were calculated from the mean values normalized against the maximum value. The percentage of fluorescence intensity at the plateau phase in Table 1 was expressed as mean #SEM. Concerning the dose response curve depicted in FIG. 2, the data were plotted using GraphPad Prism. Photo-induced Cross-linking of Unmodified Proteins (PICUP) Assay. […] Different compounds were added to the protein solution at a final concentration of 50 μM, resulting in a molar ratio of 1:1. PICUP assays were performed with the following controls: samples without light exposition, without Ru(bpy) or ammonium persulfate, and without compound (i.e., 0.125% DMSO). […]

[1] = tested on: neuroblastoma cells (SH-SY5Y); experiment: Crystal violet staining cytotoxicity; format: cell-based, human; settings: four days
Method: The cytotoxicity of compounds 1 and 2 was assessed using human neuroblastoma cells (SH-SY5Y). Employing the crystal violet staining method, determination of the optical density was used to reflect on the percentage of cells attached to each well (6-well plate format) after treatment with control DMSO (0.14) and compound concentrations at 5 and 10 μM. Treated cells were incubated at 37° C. with 5% CO2 for four days. […] Compound 2 was also non cytotoxic at higher concentration, i.e., 10 μM. Differences were not statistically significant at […] via one-way analysis of variance ANOVA with post-test (Dunnett's multiple comparison test).

[2] = tested on: neuroblastoma cells (SH-SY5Y); experiment: MTT cytotoxicity; format: cell-based, human; settings: for cell survival, MTT, difference to DMSO control: 20 μM, 48 hours; for cytotoxicity, MTT: 5 or 10 μM, 24 hours
Method: MTT (3-(4,5-Dimethylthiazol-2-yl)-2,5-diphenyltetrazolium bromide) is a tetrazolium salt that is commonly used to detect reductive metabolism in cells for viability, proliferation and cytotoxicity assays. MTT was utilized in order to evaluate metabolic cellular toxicity of compounds 1, 2, and DMSO (vehicle) using human neuroblastoma cells (SH-SY5Y). Cells were diluted in cellular media in order to obtain ˜500,000 cells per condition and grown for 8-12 hours prior treatment. Cellular media (see the material and method section below) was then removed. The cells were then treated with compounds 1 or 2 at 20 μM or DMSO control at 0.05% (FIG. 9) diluted in cellular media followed by an additional incubation of 48 hours. Cellular media was removed, and the cells were treated with 50% MTT in cellular media for 2 hours at 37° C. followed by detergent solution. Differences were considered non-significant (at p<0.05) (FIG. 9) based on the one-way analysis of variance (ANOVA) without post-test performed with GraphPad Prism (version 5).
MTT assay was performed once again with compounds 1 and 2 and DMSO control at 5 and 10 μM. Each well contained ˜500,000 cells (6-well plate) prepared 8-12 hours prior to treatment. The cells were treated for 24 hours, and then MTT method was applied to assess cell survival. […] No differences were detected at p<0.001 using the one-way analysis of variance (ANOVA) with Dunnett's multiple comparison test.

Row | percentage of oligomer reduction (PICUP, relative pixel density) (α-synuclein (α-syn)) | effect on α-syn oligomer formation (high molecular weight bands) by PICUP (α-synuclein (α-syn)) | SMILES | cytotoxicity, crystal violet staining ([1]; 5 μM) | cell survival, MTT, difference to DMSO control [2] | cytotoxicity, MTT [2] | cytotoxicity, crystal violet staining ([1]; 10 μM)
1 | 52.6% |  | O=C(Nc1ccc(NC(=O)Nc2cccc3[nH]ccc23)cc1)Nc1cccc2[nH]ccc12 [Compound 1, 3-(1H-indol-4-yl)-1-(4-{[(1H-indol-4-yl)carbamoyl]amino}phenyl)urea] | non cytotoxic | non-significant | did not induce cytotoxicity | 
2 | 91.2% | reduced α-syn oligomer formation | S=C(Nc1ccc(NC(=S)Nc2cccc3cc[nH]c23)cc1)Nc1cccc2cc[nH]c12 [Compound 8, 3-(1H-indol-7-yl)-1-(4-{[(1H-indol-7-yl)carbamothioyl]amino}phenyl)thiourea] |  |  |  | 
3 | 84.2% | reduced α-syn oligomer formation | S=C(Nc1ccc(NC(=S)Nc2cccc3[nH]ccc23)cc1)Nc1cccc2[nH]ccc12 [Compound 2, 3-(1H-indol-4-yl)-1-(4-{[(1H-indol-4-yl)carbamothioyl]amino}phenyl)thiourea] | non cytotoxic | non-significant | did not induce cytotoxicity | non cytotoxic
